Assay results reported in patent US11052127B2, “HSP for use in treatment for imiquimod related side effects” (Alfa Biogene International B.V., priority 2012, dated 2021).
Where two headings read alike, the source gives them in different places.

Tests used:
[1] = tested on: BALBc mice; experiment: Histology of back skin samples: average epidermal thickness of the treated skin; assay type: in vivo; conditions: day 7, Group 1, imiquimod only
Experimental: (§2) Group 1: mice were treated for 6 days on shaved back and right ear with one daily application of imiquimod 5% cream to the skin (3.125 mg daily dose)
(§3) Group 2: mice were treated for 6 days as group 1. In addition the part of the skin to which imiquimod was applied was treated twice daily with the cream comprising 50 μg/ml HSP (20 μg HSP per dose). Each day, the cream comprising HSP70 was applied to the skin in a 1 mm layer, 4 hours before application of the imiquimod, and again 4 hours after treatment with imiquimod.
Day 7: The animals were euthanized and skin tissue and blood was processed. Inflammatory markers were measured with Q-PCR (skin samples). Skin samples were histologically examined. […]

[2] = tested on: BALBc mice; experiment: Ear pinnae thickness in mice treated with imiquimod cream with or without HSP70 cream; assay type: in vivo; conditions: Group 1, imiquimod 5% cream only, 3.125 mg daily dose
Experimental: (§1) The effect of HSP was tested on mice (BALBc mice, male 10-12 weeks old) The mice were divided in 5 groups of eight mice each: […] Group 2: mice were treated for 6 days as group 1. […] Group 3: mice were treated for 6 days as group 2, except for the cream comprising 250 μg/ml HSP (100 μg HSP per dose) Group 4: mice were treated as group 2 except for the carrier cream comprising no Hsp70. (mice were treated for six days, twice a day, once four hours before treatment with imiquimod, once four hours after treatment with imiquimod. Group 5: control group, no cream application. Day 1: initial evaluation for visible signs of psoriasis. […] Animal backs were shaved and photographs were taken. Thickness of both ear pinnae were measured. Cream application was performed creams. All animals were assessed and examined once daily for behavioural changes and adverse effects. Ear pinnae measurements are performed daily. Skin changes Study groups on ordinal and continuous outcomes were compared using the Kruskal-Wallis test with a […] adjustment for pairwise group comparisons for an overall statistical significance criteria of 0.05 for each outcome.

[3] = tested on: BALBc mice; experiment: Cumulative PASI score (erythema, scales, thickness) of imiquimod-treated mice; assay type: in vivo; conditions: day 7; maximum of 12 points; Group 1, imiquimod only
Experimental: as §1, with “taken.” for “taken. Thickness of both ear pinnae were measured. Cream application was performed creams. All animals”, “by the PASI score. On day 7, photographs of all animals (backs) were taken to document progression of the disease.” for “and examined once daily for behavioural changes and adverse effects. Ear pinnae measurements are performed daily. Skin changes”

[4] = tested on: BALBc mice; experiment: Visual appearance (scaling) of the backs of the mice, FIG. 1; assay type: in vivo; conditions: after 6 days of treatment
Experimental: as §2, §3
From left to right: Group 2 (20 μg HSP), Group 3 (100 μg HSP), Group 4 (carrier cream only) and Group 1 (imiquimod only)

[5] = tested on: patients; conditions: cited from earlier work

average epidermal thickness of the treated skin [1]: 58 μm | ear thickness ([2]; Day 1): 0.21 mm | ear thickness ([2]; Day 5): 0.28 mm | ear thickness ([2]; Day 6): 0.37 mm | ear thickness ([2]; Day 7): 0.40 mm | cumulative PASI score [3]: 6.5
Structure (SMILES): CC(C)Cn1cnc2c(N)nc3ccccc3c21 [imiquimod]
scaling of the backs of the mice [4]: severely scaled | remote site skin reaction: edema ([5]; in females): 1% | remote site skin reaction: erythema ([5]; in females): 3% | remote site skin reaction: ulceration ([5]; in females): 2% | remote site skin reaction: edema ([5]; in males): 1% | remote site skin reaction: erosion ([5]; in males): 2% | remote site skin reaction: erythema ([5]; in males): 1% | remote site skin reaction: induration ([5]; in males): 1% | remote site skin reaction: scaling/excoriation/flaking ([5]; in males): 1% | remote site reactions: bleeding, burning, itching, pain, dryness, scabbing, crusting, redness, hardening of the skin, tenderness, tinea cruris ([5]; in vivo): more than 1 % of patients
